From US6632794B1, “Insulin-like growth factor agonist molecules” (Genentech, Inc., priority 1997, dated 2003)

Key:
[1] = target: T1, human Type 1 IGF receptor (Homo sapiens, UniProt P08069); experiment: KIRA for phosphorylation of the human Type 1 receptor in MCF-7 cells; format: cell-based; conditions: substance alone
T1 construct: host or cells: MCF-7

dwarf rats = experiment: Long-term administration to GH-deficient dwarf (dw/dw) rats; format: in vivo, rat; conditions: 150 μg of IGF-I agonist as printed
[2] = target: T2, Type 1 IGF receptor (derived from placental membranes) (Homo sapiens, UniProt P08069); conditions: Type 1 IGF receptor from placental membranes; Bayne et al.; read-out: half maximal inhibition of ligand binding; cited from earlier work
T2 construct: Type 1 IGF receptor (derived from placental membranes); host or cells: placental membranes
T2 sequence (P08069 31-736 limits assumed): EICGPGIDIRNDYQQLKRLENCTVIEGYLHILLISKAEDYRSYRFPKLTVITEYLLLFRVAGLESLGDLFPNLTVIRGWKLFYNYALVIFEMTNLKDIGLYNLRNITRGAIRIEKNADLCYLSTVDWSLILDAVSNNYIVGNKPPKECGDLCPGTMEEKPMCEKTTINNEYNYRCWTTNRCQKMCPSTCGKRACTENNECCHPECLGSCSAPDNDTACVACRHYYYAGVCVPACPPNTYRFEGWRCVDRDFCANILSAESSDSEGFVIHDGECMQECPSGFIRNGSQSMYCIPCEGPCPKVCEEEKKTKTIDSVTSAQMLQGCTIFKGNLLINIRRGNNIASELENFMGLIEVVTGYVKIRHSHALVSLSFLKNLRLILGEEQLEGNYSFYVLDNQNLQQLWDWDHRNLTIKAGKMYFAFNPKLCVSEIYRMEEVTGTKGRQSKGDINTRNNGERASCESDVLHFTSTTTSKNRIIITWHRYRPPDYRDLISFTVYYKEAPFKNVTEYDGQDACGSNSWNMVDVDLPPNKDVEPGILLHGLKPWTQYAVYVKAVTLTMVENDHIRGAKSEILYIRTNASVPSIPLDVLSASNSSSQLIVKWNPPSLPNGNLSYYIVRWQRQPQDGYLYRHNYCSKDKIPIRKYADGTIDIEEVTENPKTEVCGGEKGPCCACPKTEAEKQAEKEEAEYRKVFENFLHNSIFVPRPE
T2 sequence (P08069 741-1367 partner limits assumed): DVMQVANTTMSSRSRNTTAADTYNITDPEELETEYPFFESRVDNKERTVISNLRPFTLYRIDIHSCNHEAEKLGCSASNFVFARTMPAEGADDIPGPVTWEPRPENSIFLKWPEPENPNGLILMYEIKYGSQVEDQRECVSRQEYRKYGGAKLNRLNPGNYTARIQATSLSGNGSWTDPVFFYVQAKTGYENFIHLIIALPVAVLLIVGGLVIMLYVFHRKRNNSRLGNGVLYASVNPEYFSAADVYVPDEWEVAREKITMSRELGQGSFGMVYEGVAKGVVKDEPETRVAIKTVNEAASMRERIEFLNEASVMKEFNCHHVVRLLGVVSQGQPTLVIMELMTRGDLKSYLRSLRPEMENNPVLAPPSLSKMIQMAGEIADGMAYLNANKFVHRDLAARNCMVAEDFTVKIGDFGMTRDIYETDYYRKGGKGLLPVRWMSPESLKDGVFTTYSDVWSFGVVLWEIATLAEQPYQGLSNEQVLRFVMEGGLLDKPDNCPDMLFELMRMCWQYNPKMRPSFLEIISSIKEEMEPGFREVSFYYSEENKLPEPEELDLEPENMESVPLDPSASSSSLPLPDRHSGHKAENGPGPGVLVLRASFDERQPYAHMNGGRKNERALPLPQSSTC

[3] = test system: endogenous IGFBPs present in human serum; experiment: Displacement of ^125I-IGF-I from IGFBPs in human serum (FPLC-SEC); format: binding; conditions: normal human serum, IGF mutant 40 μg/ml, mean ± SD, n = 3
Description: To determine if the IGF mutant could displace IGF-I from endogenous IGFBPs present in human serum, the following experiment was performed. Radiolabeled rhIGF-I (^125-IGF-I) was incubated with normal human serum samples at a concentration of 33 ng/ml for 16 hr at 4° C. to allow for the formation of […] complexes. […] The samples (n=3) were then analyzed by FPLC size-exclusion chromatography (FPLC-SEC) to determine the relative size and amounts of the ^125I-IGF-I:IGFBP complexes.
Data are expressed as cpm per fraction (n=1).
This Example tests an IGFBP-3-specific peptide, BP15, for its ability to block the binding of ^125I-IGF-I in human serum. Human serum was incubated with ^125I-IGF-I±the peptide and the amount of tracer bound to IGFBPs via size-exclusion chromatography was measured.

L7 murine fibroblasts = conditions: Bayne et al.; cited from earlier work
[4] = target: T3, recombinant human (rh) IGFBP-1 (Homo sapiens, UniProt P08833); experiment: ^125I-IGF-I competitive binding plate assay, IGFBP-1; conditions: displacement of ^125I-IGF-I, FIG. 6
T3 sequence (P08833 26-259): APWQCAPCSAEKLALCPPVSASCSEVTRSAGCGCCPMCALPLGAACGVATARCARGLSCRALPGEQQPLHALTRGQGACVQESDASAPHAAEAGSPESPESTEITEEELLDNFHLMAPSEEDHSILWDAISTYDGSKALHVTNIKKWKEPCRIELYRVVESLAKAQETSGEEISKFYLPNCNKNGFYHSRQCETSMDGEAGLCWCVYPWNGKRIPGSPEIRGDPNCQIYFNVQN
Description: The mutant (Leu^24,Ala^31)hIGF-I was also tested for its ability to displace radio-labeled rhIGF-I off the IGFBPs in a competitive binding assay. This assay involves coating recombinant human (rh) IGFBP-1 or rhIGFBP-3 (160 ng/ml) onto 96-well plates overnight, blocking the plates for one hour with 0.5% BSA, adding rhIGF-I (250-0.08 ng/ml) or (Leu^24,Ala^31)hIGF-I for 1 hour, then adding 20,000 cpm of ^125I-IGF-I and incubating for 2 hours before washing and counting.
As an additional assay of peptide activity, several peptides were tested in an assay using ^125I-labeled IGF-I to measure inhibition of IGFBP binding, as described in Example 1 (Assay 3). Serial dilutions of peptide were added to an IGFBP-1 or an IGFBP-3 plate. Thereafter, ^125I-labeled IGF-I was added and the plates were incubated for 2 hours. The plates were then washed and counted to determine the amount of bound IGF-I.

T1 sequence (P08069 31-736 limits assumed): as the sequence (P08069 31-736 limits assumed) above
T1 sequence (P08069 741-1367 partner limits assumed): as the sequence (P08069 741-1367 partner limits assumed) above

Substance: (Leu^24,Ala^31)hIGF-I
- phosphorylation of the IGF-I receptor (KIRA) [1]: did not cause any change in receptor phosphorylation
- total IGF-I (rat and human) in blood (dwarf rats): rise in total IGF-I
- IC50 [2]: 2000 nM
- Free (˜7 kDa) ^125I-IGF-I, percent of total radioactivity ([3]; 0 hr): 9.3 ± 2.3%
- ^125I-IGF-I in ˜44 kDa range, percent of total radioactivity ([3]; 0 hr): 60.5 ± 0.8%
- ^125I-IGF-I in ˜150 kDa range, percent of total radioactivity ([3]; 0 hr): 30.3 ± 1.4%
- Free (˜7 kDa) ^125I-IGF-I, percent of total radioactivity ([3]; 0.5 hr): 38.2 ± 3.7%
- ^125I-IGF-I in ˜44 kDa range, percent of total radioactivity ([3]; 0.5 hr): 37.3 ± 2.9%
- ^125I-IGF-I in ˜150 kDa range, percent of total radioactivity ([3]; 0.5 hr): 24.4 ± 0.8%
- Free (˜7 kDa) ^125I-IGF-I, percent of total radioactivity ([3]; 3 hr): 61.9 ± 2.6%
- ^125I-IGF-I in ˜44 kDa range, percent of total radioactivity ([3]; 3 hr): 27.8 ± 1.5%
- ^125I-IGF-I in ˜150 kDa range, percent of total radioactivity ([3]; 3 hr): 10.3 ± 1.1%
- Free (˜7 kDa) ^125I-IGF-I, percent of total radioactivity ([3]; 24 hr): 81.9 ± 0.5%
- ^125I-IGF-I in ˜44 kDa range, percent of total radioactivity ([3]; 24 hr): 12.6 ± 0.4%
- ^125I-IGF-I in ˜150 kDa range, percent of total radioactivity ([3]; 24 hr): 5.5 ± 0.1%
- reduction in activity, ^3H thymidine incorporation (L7 murine fibroblasts): more than 200 fold
- binding affinity to recombinant IGFBP-1 [4]: affinity only several fold different from that of wild-type hIGF-I
